Values of other authors in patent US20190209710A1, “[…] AND CHEWING GUM […] A […] FOR THE TASTE-BASED DETECTION OF VIRUSES” (Julius-Maximilians-Universitaet Wuerzburg, priority 2016, published 2019).

How the values were obtained:
bacterial sialidases = settings: literature: Beau et al., Eur. J. Biochem., 106 (1980) 531-540
viral sialidases = settings: literature: Beau et al., Eur. J. Biochem., 106 (1980) 531-540

Compound: CO[C@H]1CC(O)(C(=O)O)O[C@@H]([C@H](O)[C@H](O)CO)[C@@H]1NC(C)=O (some centres unmarked) [4-methoxy-Neu5Ac]
- cleavage by bacterial sialidases (bacterial sialidases): not cut
- cleavage by viral sialidases (viral sialidases): very quickly
